Assay results: patent US20100267796A1, “THERAPEUTIC AGENT FOR IRRITABLE BOWEL SYNDROME” (KYOWA HAKKO KOGYO CO., LTD., priority 2006, published 2010)

Columns and labels:
[1] = tested on: restraint stress-induced defecation; experiment: Action on restraint stress-induced defecation; assay type: in vivo, male Wistar rats; settings: measured 1 hour after stress initiation, rats
Method: An experiment was carried out according to the method of Kishibayashi et al. [Japanese Journal of Pharmacology, Vol. 69, No. 4, pp. 495-502 (1993)]. In the experiment, male Wistar rats aged 6 to 7 weeks (supplied from Charles River Laboratories Japan, Inc.) were used. […] The rats were lightly anesthetized with diethyl ether, and the thoracic trunk and the forelimbs were wrapped with a tape to produce mild stress. One hour after stress initiation, the wet weight of fecal pellets was measured. Each drug solution was orally administered 1 hour before restraint stress. A test compound was suspended at a concentration of 2 mg/mL in an aqueous solution of 0.5 w/v % methyl cellulose 400 cP and orally administered at a volume of 5 mL/kg (at a dose of 10 mg/kg). In a control, an aqueous solution of 0.5 w/v % methyl cellulose 400 cP was administered. Ten rats were used in each group. […] YM060, a serotonin 5-HT3 receptor antagonist [The Journal of Pharmacology and Experimental Therapeutics, Vol. 259, No. 2, pp. 815-819 (1991), Astellas Pharma. Inc., online, internet (URL: […].com/jp/companry/news/2006/pdf/060131.pdf)], which is being applied as a therapeutic agent for irritable bowel syndrome, was administered at a dose of 0.1 mg/kg.

[2] = tested on: adenosine uptake in HEK293 cells; experiment: Adenosine uptake inhibitory activity in HEK293 cells ([3H]adenosine uptake); assay type: cell-based; settings: for activity at 0.05 µM: 50 nmol/L compound, n=2; for activity at 0.5 µM: 500 nmol/L compound
Method: A test was conducted according to the method of Leung et al. [Biochemical Pharmacology, Vol. 70, pp. 355-362 (2005)]. HEK293 cells (ATCC, Registration No. CRL-1537) were subcultured in a Dulbecco's modified Eagle's medium (manufactured by Invitrogen Corporation) containing 10% of fatal calf serum in a CO2 incubator using a poly-L-lysine-coated 10-cm dish (manufactured by Asahi Techno Glass Corporation). The cultured cells were seeded in a poly-L-lysine-coated 24-well plate (manufactured by Asahi Techno Glass Corporation) and cultured until the cells become confluent. […] After incubation at room temperature for 15 minutes, 0.2 mL of a Na^+-free buffer containing 100 nmol/L of [^3H] adenosine (manufactured by GE Health Care Bioscience Corporation) and each compound at each of 50 nmol/L and 500 nmol/L was added to each well. After 1 minute, the reaction solution was removed with an aspirator, and the wells were washed twice with 0.5 mL of ice-cooled PBS (phosphate-buffered saline). Then, 0.5 mL of PBS containing 5% Triton X-100 was added to each well, and the cells were scraped with a scraper. The solution in each well was homogenized by passing through a 20 G injection needle ten times and transferred to a scintillation vial containing 4 mL of clear sol (manufactured by Nacalai Tesque Inc.). Further, the wells were washed with 0.5 mL of PBS containing 5% Triton X-100, and the washing solution was added to the same vial. After sufficient agitation, radioactivity was measured using a liquid scintillation counter (Aloka Co., Ltd., LSC-3500). A relative value to 100% of an uptake of a control was indicated by percentage.

[3] = Homo sapiens, 1 min, [3H]adenosine uptake relative to 100% of control, HEK293 cells
[4] = 10 mg/kg p.o. 1 hour before restraint stress, n=10, control of each sub-table 1.06-1.71 g
[5] = 300 mg/kg p.o. 1 hour before restraint stress

SMILES | activity at 0.05 µM [2, 3] [%] | activity at 0.5 µM [2, 3] [%] | Wet weight of fecal pellets [1, 4] [g] | other results
Cn1cc(C(=O)[C@@H]2CCc3nc[nH]c3C2)c2ccccc21 [YM060, reference compound] |  |  |  | Wet weight of fecal pellets ([1]; 0.1 mg/kg 1 hour before restraint stress, control 1.24 ± 0.23 g): 0.43 ± 0.11 g
CCOC(=O)Nc1cccc2c1C(=O)c1sccc1CS2(=O)=O [Compound 1-6] | 89 | 68 | 0.31 ± 0.06 | 
CC(O)(C(=O)Nc1ccc(Cl)c2c1C(=O)c1sccc1CS2(=O)=O)C(F)(F)F (stereo not shown) [Compound 3-2] |  |  | 0.53 ± 0.14 | 
CCOC(=O)C(C)Nc1cccc2c1C(=O)c1sccc1CS2(=O)=O (stereo not shown) [Compound 5-6, 5,5-Dioxo-9-[1-(ethoxycarbonyl)ethylamino]-4,10-dihydrothieno[3,2-c][1]benzothiepin-10-one] | 80 | 50 |  | 
O=C1c2sccc2CS(=O)(=O)c2cccc(Nc3ccccc3)c21 [Compound 5-1, 5,5-Dioxo-9-phenylamino-4,10-dihydrothieno[3,2-c][1]benzothiepin-10-one] | 91 | 60 | 0.36 ± 0.16 | 
O=C1c2sccc2CS(=O)(=O)c2cccc(NC(=O)C(O)C(F)(F)F)c21 (stereo not shown) [Compound 1-11, 5,5-Dioxo-9-(2-hydroxy-3,3,3-trifluoropropanoylamino)-4,10-dihydrothieno[3,2-c][1]benzothiepin-10-one] | 82 | 46 |  | 
Cc1cc(C(=O)Nc2cccc3c2C(=O)c2sccc2CS3(=O)=O)[nH]n1 [Compound 1-9, 5,5-Dioxo-9-[(5-methylpyrazol-3-ylcarbonyl)amino]-4,10-dihydrothieno[3,2-c][1]benzothiepin-10-one] | 62 | 26 | 0.39 ± 0.18 | 
O=[N+]([O-])c1ccc(CSc2ncnc3c2ncn3C2OC(CO)C(O)C2O)cc1 (stereo not shown) [Nitrobenzylthioinosine, S6-(4-nitrobenzyl)mercaptopurine riboside, reference compound] |  | 4 |  | adenosine uptake in HEK293 cells (in words) ([2]; 100 nmol/L, concentration at which only ENT-1 is inhibited): almost completely inhibited; activity at 0.1 µM ([2]; Homo sapiens, 1 min, 100 nmol/L compound, [3H]adenosine uptake relative to 100% of control, HEK293 cells): 8%
CCOc1cc2nc(N3CCOCC3)nc(N3CCC(n4c(=O)c5cc(C)ccc5n(C)c4=O)CC3)c2cc1OCC [KF24345, reference compound] |  |  | 0.48 ± 0.14 | 
CC(=O)C(C)(C)C(=O)Nc1cccc2c1C(=O)c1sccc1CS2(=O)=O [Compound 1-10, 5,5-Dioxo-9-(2,2-dimethyl-3-oxobutanoylamino)-4,0-dihydrothieno[3,2-c][1]benzothiepin-10-one] | 94 | 63 |  | 
CCOC(=O)CNc1cccc2c1C(=O)c1sccc1CS2(=O)=O [Compound 5-5, 5,5-Dioxo-9-ethoxycarbonylmethylamino-4,10-dihydrothieno[3,2-c][1]benzothiepin-10-one] | 98 | 68 |  | 
COC(=O)C(Cc1ccccc1)Nc1cccc2c1C(=O)c1sccc1CS2(=O)=O (stereo not shown) [Compound 5-8, 5,5-Dioxo-9-{[1-(methoxycarbonyl)-2-phenylethyl]amino}-4,10-dihydrothieno[3,2-c][1]benzothiepin-10-one] | 92 | 69 |  | 
O=C1c2sccc2CS(=O)(=O)c2cccc(SCc3ccccc3)c21 [Compound 6-1, 9-Benzylthio-5,5-dioxo-4,10-dihydrothieno[3,2-c][1]benzothiepin-10-one] | 75 | 39 |  | 
O=C1c2sccc2CS(=O)(=O)c2cccc(OCc3ccccc3)c21 [Compound 6-2, 9-Benzyloxy-5,5-dioxo-4,10-dihydrothieno[3,2-c][1]benzothiepin-10-one] | 94 | 73 |  | 
O=C1c2sccc2CS(=O)(=O)c2cccc(Nc3cc(Cl)ccc3O)c21 [Compound 5-2, 9-(5-Chloro-2-hydroxyphenylamino)-5,5-dioxo-4,10-dihydrothieno[3,2-c][1]benzothiepin-10-one] | 80 | 44 | 0.46 ± 0.18 | 
CC(C)(C)C(=O)Nc1cccc2c1C(=O)c1sccc1CS2(=O)=O [Compound 1-5] | 90 | 55 | 0.97 ± 0.16 | 
O=C1c2sccc2CS(=O)(=O)c2cccc(NCc3ccccc3)c21 [Compound 5-3, 9-Benzylamino-5,5-dioxo-4,10-dihydrothieno[3,2-c][1]benzothiepin-10-one] | 63 | 30 | 0.41 ± 0.17 | 
Cc1ccc(NC(=O)C(C)(O)C(F)(F)F)c2c1S(=O)(=O)Cc1ccsc1C2=O (stereo not shown) [Compound 3-4] | 71 | 41 | 0.67 ± 0.19 | 
NC(=O)C1CN(CCCCC(c2ccc(F)cc2)c2ccc(F)cc2)CCN1CC(=O)Nc1c(Cl)cc(N)cc1Cl (stereo not shown) [Draflazine, reference compound] |  |  |  | Wet weight of fecal pellets ([1]; 100 mg/kg p.o. 1 hour before restraint stress, control 1.06 ± 0.11 g): 0.43 ± 0.13 g
O=C(Nc1cccc2c1C(=O)c1sccc1CS2(=O)=O)c1cc(Cl)ccc1O [Compound 1-7] | 74 | 35 | 0.59 ± 0.12 | 
O=C(Nc1cccc2c1C(=O)c1sccc1CS2(=O)=O)c1ccco1 [Compound 1-8] | 79 | 44 | 0.66 ± 0.12 | 
CC(O)(C(=O)Nc1ccc(F)c2c1C(=O)c1sccc1CS2(=O)=O)C(F)(F)F (stereo not shown) [Compound 3-1] | 96 | 63 | 0.41 ± 0.16 | 
O=C(CC(O)(C(F)(F)F)C(F)(F)F)Nc1cccc2c1C(=O)c1sccc1CS2(=O)=O [Compound 1-2] | 39 | 17 | 0.78 ± 0.25 | 
OCCN(CCO)c1nc(N2CCCCC2)c2nc(N(CCO)CCO)nc(N3CCCCC3)c2n1 [Dipyridamole, reference compound] |  |  |  | Wet weight of fecal pellets [1, 5]: 0.59 ± 0.15 g
CCC(O)(CC)C(=O)Nc1cccc2c1C(=O)c1sccc1CS2(=O)=O [Compound 1-4, 5,5-Dioxo-9-(2-ethyl-2-hydroxybutanoylamino)-4,10-dihydrothieno[3,2-c][1]benzothiepin-10-one] | 73 | 34 | 0.44 ± 0.19 | 
COC(=O)C(CC(C)C)Nc1cccc2c1C(=O)c1sccc1CS2(=O)=O (stereo not shown) [Compound 5-7, 5,5-Dioxo-9-{[1-(methoxycarbonyl)-3-methylbutyl]amino}-4,10-dihydrothieno[3,2-c][1]benzothiepin-10-one] | 67 | 30 |  | 
CC(O)(C(=O)Nc1ccc(Br)c2c1C(=O)c1sccc1CS2(=O)=O)C(F)(F)F (stereo not shown) [Compound 3-3, 6-Bromo-5,5-dioxo-9-(3,3,3-trifluoro-2-hydroxy-2-methylpropanoylamino)-4,10-dihydrothieno[3,2-c][1]benzothiepin-10-one] |  |  | 0.81 ± 0.22 | 
COc1ccccc1CNc1cccc2c1C(=O)c1sccc1CS2(=O)=O [Compound 5-4, 5,5-Dioxo-9-(2-methoxybenzylamino)-4,10-dihydrothieno[3,2-c][1]benzothiepin-10-one] | 72 | 42 |  | 
COc1cc(C(=O)OCCCN2CCCN(CCCOC(=O)c3cc(OC)c(OC)c(OC)c3)CC2)cc(OC)c1OC [Dilazep, reference compound] |  |  |  | Wet weight of fecal pellets [1, 5]: 0.84 ± 0.17 g
